# Test results published in the supplement of paper PMC10307832.
# Legend:
# Experiment in all cases: relative viability (nuclei count vs DMSO), 5 days (fraction); higher = more cells survive
# NCI-H1793 = tested on: NCI-H1793
# Method in brief: (§1)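 Relative viability equals treated-well nuclei counts divided by vehicle-well nuclei counts. Counts came from 4× images of lung cancer cell lines grown in 1536-well plates for 5 days after pin-tool dosing on the day after seeding. Dosing used one drug alone or a fixed anchor-drug dose plus five library-drug doses (not always all listed) in √10 steps, and values are medians of duplicate plates.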
# NCI-H1355 = tested on: NCI-H1355
# Method in brief: as §1
# NCI-H2085 = tested on: NCI-H2085
# Method in brief: as §1
# BEN = tested on: BEN
# Method in brief: as §1
# NCI-H838 = tested on: NCI-H838
# Method in brief: as §1
# NCI-H1651 = tested on: NCI-H1651
# Method in brief: as §1
# COR-L23 = tested on: COR-L23
# Method in brief: as §1
# NCI-H441 = tested on: NCI-H441
# Method in brief: as §1
# LU99A = tested on: LU99A
# Method in brief: as §1
# NCI-H1650 = tested on: NCI-H1650
# Method in brief: as §1
# NCI-H2023 = tested on: NCI-H2023
# Method in brief: as §1
# NCI-H460 = tested on: NCI-H460
# Method in brief: as §1
# NCI-H2342 = tested on: NCI-H2342
# Method in brief: as §1
# NCI-H1437 = tested on: NCI-H1437
# Method in brief: as §1
# NCI-H358 = tested on: NCI-H358
# Method in brief: as §1
# NCI-H1734 = tested on: NCI-H1734
# Method in brief: as §1
# HCC-366 = tested on: HCC-366
# Method in brief: as §1
# CAL-12T = tested on: CAL-12T
# Method in brief: as §1
# LOU-NH91 = tested on: LOU-NH91
# Method in brief: as §1
# NCI-H1975 = tested on: NCI-H1975
# Method in brief: as §1
# SK-LU-1 = tested on: SK-LU-1
# Method in brief: as §1
structure (smiles),measurement,setting,value
CCN(CC)CCCCNc1ncc2cc(-c3cc(OC)cc(OC)c3)c(NC(=O)NC(C)(C)C)nc2n1 + O=C(CCCCCCC(=O)Nc1ccccc1)NO [Vorinostat] (partner 1 µM),relative viability,NCI-H1793; first compound 0.01 µM,0.724
same,relative viability,NCI-H1793; first compound 0.03162 µM,0.707
same,relative viability,NCI-H1793; first compound 0.1 µM,0.898
same,relative viability,NCI-H1793; first compound 0.3162 µM,0.816
same,relative viability,NCI-H1793; first compound 1 µM,0.599
same,relative viability,NCI-H1355; first compound 0.01 µM,0.647
same,relative viability,NCI-H1355; first compound 0.03162 µM,0.654
same,relative viability,NCI-H1355; first compound 0.1 µM,0.67
same,relative viability,NCI-H1355; first compound 0.3162 µM,0.657
same,relative viability,NCI-H1355; first compound 1 µM,0.616
same,relative viability,NCI-H2085; first compound 0.01 µM,0.782
same,relative viability,NCI-H2085; first compound 0.03162 µM,0.8
same,relative viability,NCI-H2085; first compound 0.1 µM,0.935
same,relative viability,NCI-H2085; first compound 0.3162 µM,0.858
same,relative viability,NCI-H2085; first compound 1 µM,0.793
same,relative viability,BEN; first compound 0.01 µM,0.617
same,relative viability,BEN; first compound 0.03162 µM,0.547
same,relative viability,BEN; first compound 0.1 µM,0.579
same,relative viability,BEN; first compound 0.3162 µM,0.544
same,relative viability,BEN; first compound 1 µM,0.546
same,relative viability,NCI-H838; first compound 0.01 µM,0.669
same,relative viability,NCI-H838; first compound 0.03162 µM,0.732
same,relative viability,NCI-H838; first compound 0.1 µM,0.779
same,relative viability,NCI-H838; first compound 0.3162 µM,0.69
same,relative viability,NCI-H838; first compound 1 µM,0.592
same,relative viability,NCI-H1651; first compound 0.01 µM,0.541
same,relative viability,NCI-H1651; first compound 0.03162 µM,0.626
same,relative viability,NCI-H1651; first compound 0.1 µM,0.582
same,relative viability,NCI-H1651; first compound 0.3162 µM,0.674
same,relative viability,NCI-H1651; first compound 1 µM,0.475
same,relative viability,COR-L23; first compound 0.01 µM,0.467
same,relative viability,COR-L23; first compound 0.03162 µM,0.495
same,relative viability,COR-L23; first compound 0.1 µM,0.379
same,relative viability,COR-L23; first compound 0.3162 µM,0.593
same,relative viability,COR-L23; first compound 1 µM,0.434
same,relative viability,NCI-H441; first compound 0.01 µM,0.863
same,relative viability,NCI-H441; first compound 0.03162 µM,0.829
same,relative viability,NCI-H441; first compound 0.1 µM,0.811
same,relative viability,NCI-H441; first compound 0.3162 µM,0.776
same,relative viability,NCI-H441; first compound 1 µM,0.826
same,relative viability,LU99A; first compound 0.01 µM,0.528
same,relative viability,LU99A; first compound 0.03162 µM,0.601
same,relative viability,LU99A; first compound 0.1 µM,0.541
same,relative viability,LU99A; first compound 0.3162 µM,0.529
same,relative viability,LU99A; first compound 1 µM,0.423
same,relative viability,NCI-H1650; first compound 0.01 µM,0.625
same,relative viability,NCI-H1650; first compound 0.03162 µM,0.616
same,relative viability,NCI-H1650; first compound 0.1 µM,0.531
same,relative viability,NCI-H1650; first compound 0.3162 µM,0.655
same,relative viability,NCI-H1650; first compound 1 µM,0.432
same,relative viability,NCI-H2023; first compound 0.01 µM,0.534
same,relative viability,NCI-H2023; first compound 0.03162 µM,0.756
same,relative viability,NCI-H2023; first compound 0.1 µM,0.686
same,relative viability,NCI-H2023; first compound 0.3162 µM,0.6
same,relative viability,NCI-H2023; first compound 1 µM,0.567
same,relative viability,NCI-H460; first compound 0.01 µM,0.817
same,relative viability,NCI-H460; first compound 0.03162 µM,0.793
same,relative viability,NCI-H460; first compound 0.1 µM,1.39
same,relative viability,NCI-H460; first compound 0.3162 µM,0.763
same,relative viability,NCI-H460; first compound 1 µM,0.557
same,relative viability,NCI-H2342; first compound 0.01 µM,0.699
same,relative viability,NCI-H2342; first compound 0.03162 µM,0.716
same,relative viability,NCI-H2342; first compound 0.1 µM,0.796
same,relative viability,NCI-H2342; first compound 0.3162 µM,0.708
same,relative viability,NCI-H2342; first compound 1 µM,0.875
same,relative viability,NCI-H1437; first compound 0.01 µM,0.88
same,relative viability,NCI-H1437; first compound 0.03162 µM,0.821
same,relative viability,NCI-H1437; first compound 0.1 µM,0.827
same,relative viability,NCI-H1437; first compound 0.3162 µM,0.948
same,relative viability,NCI-H1437; first compound 1 µM,0.82
same,relative viability,NCI-H358; first compound 0.01 µM,0.684
same,relative viability,NCI-H358; first compound 0.03162 µM,0.879
same,relative viability,NCI-H358; first compound 0.1 µM,0.813
same,relative viability,NCI-H358; first compound 0.3162 µM,0.806
same,relative viability,NCI-H358; first compound 1 µM,0.583
same,relative viability,NCI-H1734; first compound 0.01 µM,0.849
same,relative viability,NCI-H1734; first compound 0.03162 µM,0.874
same,relative viability,NCI-H1734; first compound 0.1 µM,0.974
same,relative viability,NCI-H1734; first compound 0.3162 µM,0.864
same,relative viability,NCI-H1734; first compound 1 µM,0.757
same,relative viability,HCC-366; first compound 0.01 µM,0.414
same,relative viability,HCC-366; first compound 0.03162 µM,0.369
same,relative viability,HCC-366; first compound 0.1 µM,0.423
same,relative viability,HCC-366; first compound 0.3162 µM,0.383
same,relative viability,HCC-366; first compound 1 µM,0.288
same,relative viability,CAL-12T; first compound 0.01 µM,0.784
same,relative viability,CAL-12T; first compound 0.03162 µM,0.702
same,relative viability,CAL-12T; first compound 0.1 µM,0.766
same,relative viability,CAL-12T; first compound 0.3162 µM,0.778
same,relative viability,CAL-12T; first compound 1 µM,0.845
same,relative viability,LOU-NH91; first compound 0.01 µM,0.868
same,relative viability,LOU-NH91; first compound 0.03162 µM,0.99
same,relative viability,LOU-NH91; first compound 0.1 µM,1.04
same,relative viability,LOU-NH91; first compound 0.3162 µM,1.08
same,relative viability,LOU-NH91; first compound 1 µM,0.901
same,relative viability,NCI-H1975; first compound 0.01 µM,0.758
same,relative viability,NCI-H1975; first compound 0.03162 µM,0.756
same,relative viability,NCI-H1975; first compound 0.1 µM,0.853
same,relative viability,NCI-H1975; first compound 0.3162 µM,0.78
same,relative viability,NCI-H1975; first compound 1 µM,0.548
same,relative viability,SK-LU-1; first compound 0.01 µM,0.922
same,relative viability,SK-LU-1; first compound 0.03162 µM,0.795
same,relative viability,SK-LU-1; first compound 0.1 µM,0.782
same,relative viability,SK-LU-1; first compound 0.3162 µM,0.973
same,relative viability,SK-LU-1; first compound 1 µM,0.67
